{
  "source": "patent US6479050B1",
  "about": "“Trace element-rich additive, method for preparing same, preparation in which the additive is included and use thereof” (Innovi N.V., priority 1991, dated 2002)",
  "key": {"[1]": {"test": "Se content in plasma during supplementation", "details": "child with Protein Lysine Intolerance, additive 3 microgrammes Se daily for three weeks, selenite as second supplementation after 13 months, successive samples", "experimental": "(§1) For three weeks a quantity of 3 microgrammes of Se in the form of the additive according to the invention was administered daily to a child suffering from Protein Lysine Intolerance (PLI)."}, "[2]": {"test_system": "glutathione-peroxidase", "test": "In vivo effect of the additive on glutathione-peroxidase activity in plasma", "set-up": "species or system human", "experimental": "In vivo effect to the additive according to the invention on the glutathione-peroxidase activity in plasma.\nas §1"}},
  "note": "Several values for one entry are separate records, joined by “and”; a condition that tells them apart may be missing. Equal entries are not always repeated.",
  "data": [
    {"smiles": "O=[Se](O)O", "note": "[selenite]", "values": [
      {"measurement": "Se-content", "setting": "[1]", "value": "20 ng/mL and 22 ng/mL and 24 ng/mL and 23 ng/mL"},
      {"measurement": "glutathione peroxidase activity in the plasma (change during supplementation, in words)", "setting": "[2]; child with PLI, during supplementation", "value": "no increase"},
      {"measurement": "glutathione-peroxidase activity", "setting": "[2]; plasma, child with Protein Lysine Intolerance, additive 3 microgrammes Se daily for three weeks, selenite as second supplementation after 13 months, successive samples", "value": "0.13 U/ml and 0.12 U/ml"}
    ]}
  ]
}
